According to patent publication US20120214862A1, “MODULATION OF FACTOR 7 EXPRESSION” (ISIS Pharmaceuticals, Inc., priority 2009, published 2012):
In the oligonucleotide strings, read from the 5' end, every base follows the letter of its sugar. An asterisk marks phosphorothioate; unmarked linkages are phosphodiester. Other units and linkages are bracketed, terminal groups are in braces. A string of capitals states the bases alone. e = 2'-O-(2-methoxyethyl) (MOE); [5mC] = 5-methylcytosine; d = 2'-deoxy (DNA)

Columns and labels:
Assay type in all cases: cell-based
[1] = tested on: human Factor 7 mRNA; experiment: Antisense inhibition of human Factor 7 mRNA in HepB3 cells, lipofectin, 50 nM, real-time RT-PCR; details: HepB3 cells
Method in brief: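 Cells plated at 4,000 per well were transfected and harvested after approximately 24 hours of treatment. Transcript levels, measured with primer probe set RTS 2927, were normalised to total RNA by RIBOGREEN®. Values are percent inhibition relative to untreated control cells.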

[2] = tested on: human Factor 7 mRNA; experiment: Dose-dependent antisense inhibition of human Factor 7 in HepB3 cells, transfection with lipofectin; details: lipofectin, HepB3 cells, 16 hours
Method in brief: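 HepB3 cells (4,000/well) lipofectin-transfected with antisense oligonucleotide at 3.125 or 6.25 up to 100 nM for ~16 h. Factor 7 mRNA measured by real-time RT-PCR with primer probe set RTS 2927, adjusted to RIBOGREEN total RNA; expressed as percent inhibition versus untreated control cells.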

[3] = tested on: human Factor 7 mRNA; experiment: Dose-dependent antisense inhibition of human Factor 7 in HepB3 cells, transfection with electroporation
Protocol: (§1) The gapmers were also transfected via electroporation and their dose-dependent inhibition of human Factor 7 mRNA was measured. Cells were plated at a density of 20,000 cells per well and transfected via electroporation with 3.125 μM, 6.25 μM, 12.5 μM, 25 μM, 50 μM, and 100 μM concentrations of antisense oligonucleotide, as specified in Table 15. After a treatment period of approximately 16 hours, RNA was isolated from the cells and Factor 7 mRNA levels were measured by quantitative real-time PCR. Human Factor 7 primer probe set RTS 2927 was used to measure mRNA levels. Factor 7 mRNA levels were adjusted according to total RNA content, as measured by RIBOGREEN®. Results are presented as percent inhibition of Factor 7, relative to untreated control cells.
as §1, with “Cells were” for “The gapmers were also transfected via electroporation and their dose-dependent inhibition of human Factor 7 mRNA was measured. Cells were”, “in Table 16. After a” for “in Table 15. After a”, “cells and human Factor 7” for “cells and Factor 7”

[4] = gapmers (5-10-5, 3-14-3, 2-13-5 MOE) targeted to nucleobases 4868 to 4899 of SEQ ID NO: 1
[5] = 3.125 μM, 16 hours (Example 7, Table 15)
[6] = 6.25 μM, 16 hours (Example 7, Table 15)
[7] = 12.5 μM, 16 hours (Example 7, Table 15)
[8] = 25 μM, 16 hours (Example 7, Table 15)
[9] = 50 μM, 16 hours (Example 7, Table 15)
[10] = 100 μM, 16 hours (Example 7, Table 15)
[11] = gapmers targeted to nucleobases 15188 to 15211 of SEQ ID NO: 1 (Table 13)
[12] = 3.125 μM, 16 hours (Example 8, Table 16)
[13] = 6.25 μM, 16 hours (Example 8, Table 16)
[14] = 12.5 μM, 16 hours (Example 8, Table 16)
[15] = 25 μM, 16 hours (Example 8, Table 16)
[16] = 50 μM, 16 hours (Example 8, Table 16)
[17] = 100 μM, 16 hours (Example 8, Table 16)

Row | Substance | % Inhibition of human Factor 7 mRNA levels [1, 4] [%] | percent inhibition of Factor 7 mRNA, relative to untreated control cells ([2]; 3.125 nM) [%] | percent inhibition of Factor 7 mRNA, relative to untreated control cells ([2]; 12.5 nM) [%] | percent inhibition of Factor 7 mRNA, relative to untreated control cells ([2]; 25 nM) [%] | percent inhibition of Factor 7 mRNA, relative to untreated control cells ([2]; 50 nM) [%] | percent inhibition of Factor 7 mRNA, relative to untreated control cells ([2]; 100 nM) [%] | percent inhibition of Factor 7 mRNA, relative to untreated control cells [2] [%] | percent inhibition of Factor 7 mRNA, relative to untreated control cells [3, 5] [%] | percent inhibition of Factor 7 mRNA, relative to untreated control cells [3, 6] [%] | percent inhibition of Factor 7 mRNA, relative to untreated control cells [3, 7] [%] | percent inhibition of Factor 7 mRNA, relative to untreated control cells [3, 8] [%] | percent inhibition of Factor 7 mRNA, relative to untreated control cells [3, 9] [%] | percent inhibition of Factor 7 mRNA, relative to untreated control cells [3, 10] [%] | percent inhibition of Factor 7 mRNA, relative to untreated control cells [3, 12] [%] | percent inhibition of Factor 7 mRNA, relative to untreated control cells [3, 13] [%] | percent inhibition of Factor 7 mRNA, relative to untreated control cells [3, 14] [%] | percent inhibition of Factor 7 mRNA, relative to untreated control cells [3, 15] [%] | percent inhibition of Factor 7 mRNA, relative to untreated control cells [3, 16] [%] | percent inhibition of Factor 7 mRNA, relative to untreated control cells [3, 17] [%] | other results
1 | 422217 (antisense eG*eA*eG*dT*dT*d[5mC]*dT*dG*d[5mC]*dA*dG*dG*dA*dG*d[5mC]*dG*dG*e[5mC]*e[5mC]*eT) [compound 422217] | 75 | 8 | 45 | 63 | 79 | 83 | 18 | 15 | 19 | 29 | 55 | 61 | 83 | – | – | – | – | – | – | –
2 | 422229 (antisense eA*eT*dG*d[5mC]*dA*dT*dG*dG*dT*dG*dA*dT*dG*d[5mC]*dT*eT*e[5mC]*eT*eG*eA) [compound 422229] | – | 21 | 53 | 72 | 86 | 92 | 32 | 21 | 30 | 33 | 44 | 65 | 77 | 30 | 45 | 67 | 79 | 90 | 92 | % Inhibition of human Factor 7 mRNA levels [1, 11]: 71%
3 | 422142 (antisense eG*eA*eG*eT*eT*d[5mC]*dT*dG*d[5mC]*dA*dG*dG*dA*dG*d[5mC]*eG*eG*e[5mC]*e[5mC]*eT) [compound 422142] | 73 | 16 | 51 | 66 | 72 | 68 | 34 | 26 | 47 | 63 | 67 | 77 | 78 | 34 | 47 | 62 | 67 | 65 | 65 | –
4 | 422096 (antisense eA*eG*eA*e[5mC]*eA*dA*dT*dG*dG*dT*d[5mC]*dA*dG*dG*dG*e[5mC]*eT*eG*eG*eT) [compound 422096] | – | 17 | 43 | 60 | 68 | 82 | 23 | 26 | 30 | 46 | 50 | 62 | 85 | – | – | – | – | – | – | % Inhibition of human Factor 7 mRNA levels ([1]; gapmers targeted to nucleobases 11830 to 11869 of SEQ ID NO: 1 (Table 9)): 76%
5 | 422295 (antisense e[5mC]*eG*dA*dG*dT*dT*d[5mC]*dT*dG*d[5mC]*dA*dG*dG*dA*dG*e[5mC]*eG*eG*e[5mC]*e[5mC]) [compound 422295] | 74 | 17 | 44 | 64 | 80 | 85 | 22 | 10 | 8 | 37 | 58 | 68 | 80 | – | – | – | – | – | – | –
6 | 422150 (antisense eG*e[5mC]*eA*dT*dG*dG*dT*dG*dA*dT*dG*d[5mC]*dT*dT*d[5mC]*dT*dG*eA*eA*eT) [compound 422150] | – | 9 | 38 | 59 | 79 | 87 | 23 | 17 | 20 | 40 | 54 | 68 | 83 | 0 | 31 | 53 | 67 | 77 | 86 | % Inhibition of human Factor 7 mRNA levels [1, 11]: 74%
7 | 422183 (antisense eG*e[5mC]*eG*d[5mC]*d[5mC]*dA*d[5mC]*d[5mC]*d[5mC]*dG*d[5mC]*d[5mC]*dG*dG*d[5mC]*dT*d[5mC]*eT*eG*e[5mC]) [compound 422183] | – | 28 | 56 | 78 | 84 | 88 | 37 | 16 | 28 | 37 | 44 | 59 | 71 | 2 | 3 | 24 | 50 | 64 | 71 | % Inhibition of human Factor 7 mRNA levels ([1]; gapmers targeted to nucleobases 13760 to 13789 of SEQ ID NO: 1 (Table 10)): 79%
